Results on ten compounds are retold here after patent US9512139B2, “Conformationally constrained, fully synthetic macrocyclic compounds” (POLYPHOR AG, priority 2009, dated 2016).

A short description of series [1]: in vitro. The format is in vitro ADME, mouse. The conditions noted are these: plasma; for Plasma Stability 240 min mouse [% remain.]: 4 h.
Procedure: (§5) Example compounds were dissolved in DMSO/H2O 90:10 to a final concentration of 10 mM for plasma stability determination and metabolic stability determination.
(§6) Human plasma (3-5 donors, Blutspendedienst SRK, Basel) and CD-1 mouse plasma (mixed gender pool >50 animals, Innovative Research, CA, USA) are both sodium citrate stabilized. The assay is performed in triplicates at 10 μM compound concentration and 37° C. Samples are taken at 0, 15, 60, and 240 minutes and stopped by precipitation with 2 volumes of acetonitrile. The supernatant is collected, evaporated and reconstituted in a 5% acetonitrile solution to be analyzed by HPLC/MS/MS. The resulting peak area counts are expressed in percent of the 0 value and used to determine the endpoint stability in % and the half life in minutes. In order to monitor assay integrity the degradation of propantheline is assayed with every experimental set.
The nature of series [2]: Metabolic stability assay, CD-1 mouse microsomes. Format: in vitro ADME. The conditions noted are these: microsomes; for Metabolic Stability 60 min mouse [% remain.]: 1 h; for half-life at 10 µM: both sexes. Here is the method: (§1) 4. Plasma and Metabolic Stability Assays
(§2) The assays were conducted according to literature precedents (F. P. Guengerich, Analysis and Characterization of Enzymes; in: Principles and Methods of Toxicology; A. W. Hayes (Ed.) Raven Press: New York, 1989, 777-813; R. Singh et al., In vitro metabolism of a potent HIV-protease inhibitor (141W94) using rat, monkey and human liver S9, Rapid Commun. Mass Spectrom. 1996, 10, 1019-1026).
(§3) Metabolic Stability Assay
(§4) Microsomes from a human 50 donor mixed gender pool and 1:1 mixtures of microsomes from CD-1 mouse single-gender pools are purchased from Celsis (Belgium). The enzymatic reaction is performed in a buffer containing an NADPH regeneration system and microsomes with the following end concentrations: 100 mM potassium phosphate buffer (all from Sigma), 1 mg/mL glucose-6-phosphate, 1 mg/mL β-nicotinamide adenine dinucleotide phosphate (NADP), 0.65 mg/mL magnesium chloride, 0.8 units/mL of glucose-6-phosphate dehydrogenase (prediluted with 5 mM citrate buffer), 10 μM compound and 1 mg/ml microsomal protein. Compounds are incubated at 37° C. in duplicates and samples are taken after 0, 20 and 60 minutes. After acetonitrile precipitation (2 volumes) and HPLC/MS/MS analysis metabolic turnover is expressed in % of the initial 0 minutes value and half life T½ (min) is calculated. Verapamil for human and propranolol for mouse are used as reference and are assayed with every experimental set.

The nature of series [3]: Metabolic stability assay, human microsomes. Format: in vitro ADME. The conditions noted are these: human, microsomes; for Metabolic Stability 60 min hum [% remain.]: 1 h; for half-life at 10 µM: both sexes. As to the method: as §1, §2, §3, §4
Series [4] can be described thus: in vitro. Format: in vitro ADME, human. The conditions noted are these: human, plasma; for Plasma Stability 240 min hum [% remain.]: 4 h.
Procedure: as §5, §6
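For Plasma Stability 240 min mouse [% remain.] in this document: sodium citrate stabilized mouse plasma, parent compound quantified by HPLC/MS/MS relative to its peak area at time zero, run in triplicate.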
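For Plasma Stability T½ [min] mouse in this document: sodium citrate stabilized mouse plasma, parent compound quantified by HPLC/MS/MS relative to its peak area at time zero, run in triplicate.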

On to `CC(=O)N[C@H]1C[C@H]2COc3ccc(F)cc3C(=O)N(C)[C@H](C(=O)N3CCCC3)CCC(=O)N(C)CC(=O)N2C1` [Ex. 37, N-[(2S,11S,19aS)-15-fluoro-7,12-dimethyl-5,8,13-trioxo-11-(1-pyrrolidinylcarbonyl)-2,3,6,7,8,9,10,11,12,13,19,19a-dodecahydro-1H,5H-pyrrolo[2,1-c] [1,4,7,12]benzoxatriazacyclo-pentadecin-2-yl]acetamide], for which, in the series “in vitro [1]” (mouse), the Plasma Stability T½ [min] mouse is more than 240 min and the “Plasma Stability 240 min mouse [% remain.]” value came out at 100 % remain. Besides, in series [2] (mouse), the Metabolic Stability T½ [min] mouse was more than 60 min and the “Metabolic Stability 60 min mouse [% remain.]” value came to 100 % remain. In series [3], the Metabolic Stability T½ [min] hum was more than 60 min and the “Metabolic Stability 60 min hum [% remain.]” value is reported as 100 % remain. Further, in the series “in vitro [4]”, the Plasma Stability T½ [min] hum was more than 240 min and the “Plasma Stability 240 min hum [% remain.]” value is 77 % remain.
For the compound `CCN(CC)[C@H]1C[C@H]2COc3ccc(F)cc3C(=O)N(C)[C@H](C(=O)N3CCCC3)CCC(=O)N(C)CC(=O)N2C1` [Ex. 43, (2S,11S,19aS)-2-(diethylamino)-15-fluoro-7,12-dimethyl-11-(1-pyrrolidinylcarbonyl)-2,3,6,7,9,10,11,12,19,19a-decahydro-1H,5H-pyrrolo [2,1-c] [1,4,7,12]benzoxatriazacyclopentadecine-5,8,13-trione], in “in vitro [1]” (both, CD-1, mouse, 10 µM), the Plasma Stability T½ [min] mouse is more than 240 min and the “Plasma Stability 240 min mouse [% remain.]” value came to 89 % remain. Moreover, in series [2] (both, CD-1, mouse, 10 µM), the Metabolic Stability T½ [min] mouse is more than 60 min and the “Metabolic Stability 60 min mouse [% remain.]” value worked out at 98 % remain. Besides, in series [3] (both, 10 µM), the Metabolic Stability T½ [min] hum is more than 60 min and the “Metabolic Stability 60 min hum [% remain.]” value stood at 100 % remain. In addition, in “in vitro [4]” (10 µM), the Plasma Stability T½ [min] hum was more than 240 min and the “Plasma Stability 240 min hum [% remain.]” value is 82 % remain.
On to `CCCCC(=O)N[C@@H]1C[C@H]2COc3ccc(F)cc3C(=O)N(C)[C@H](C(=O)N(C)CCN(C)C)CCC(=O)N(C)CC(=O)N2C1` [Ex. 78, (2R,11S,19aS)-N-[2-(dimethylamino)ethyl]-15-fluoro-N,7,12-trimethyl-5,8,13-trioxo-2-(pentanoylamino)-2,3,6,7,8,9,10,11,12,13,19, 19a-dodecahydro-1H,5H-pyrrolo[2,1-c][1,4,7,12]benzoxatriazacyclopentadecine-11-carboxamide], for which, in the series “in vitro [1]” (both, CD-1, mouse, 10 µM), the Plasma Stability T½ [min] mouse is more than 240 min and the “Plasma Stability 240 min mouse [% remain.]” value is 100 % remain. Further, in series [2] (both, CD-1, mouse, 10 µM), the Metabolic Stability T½ [min] mouse is more than 60 min and the “Metabolic Stability 60 min mouse [% remain.]” value turned out to be 100 % remain. Also, in series [3] (both, 10 µM), the Metabolic Stability T½ [min] hum was more than 60 min and the “Metabolic Stability 60 min hum [% remain.]” value is given as 78 % remain. Further, in “in vitro [4]” (10 µM), the Plasma Stability T½ [min] hum was more than 240 min and the “Plasma Stability 240 min hum [% remain.]” value is recorded as 65 % remain.
For the compound `CN1CC(=O)N2C[C@@H](N)C[C@H]2COc2ccc(F)cc2C(=O)N(C)[C@@H](C(=O)NCc2ccc3ccccc3c2)CCC1=O` [Ex. 91, (2S,11R,19aS)-2-amino-15-fluoro-7,12-dimethyl-N-(2-naphthylmethyl)-5,8,13-trioxo-2,3,6,7,8,9,10,11,12,13,19,19a-dodecahydro-1H,5H-pyrrolo[2,1-c][1,4,7,12] benzoxatriazacyclopentadecine-11-carboxamide], in “in vitro [1]” (both, CD-1, mouse, 10 µM), the Plasma Stability T½ [min] mouse is more than 240 min and the “Plasma Stability 240 min mouse [% remain.]” value came to 88 % remain. For the same compound, in series [2] (both, CD-1, mouse, 10 µM), the Metabolic Stability T½ [min] mouse is more than 60 min and the “Metabolic Stability 60 min mouse [% remain.]” value came out at 95 % remain. For the same compound, in series [3] (both, 10 µM), the Metabolic Stability T½ [min] hum is more than 60 min and the “Metabolic Stability 60 min hum [% remain.]” value came to 91 % remain. Besides, in the series “in vitro [4]” (10 µM), the Plasma Stability T½ [min] hum is more than 240 min and the “Plasma Stability 240 min hum [% remain.]” value turned out to be 96 % remain.
On to `CNC(=O)[C@H]1CCC(=O)N(C)CC(=O)N2C[C@@H](NC(=O)Cc3ccc4ccccc4c3)C[C@H]2COc2ccc(F)cc2C(=O)N1C` [Ex. 93, (2S,11R,19aS)-15-fluoro-N,7,12-trimethyl-2-{[2-(2-naphthyl)acetyl]amino}-5,8,13-trioxo-2,3,6,7,8,9,10,11,12, 13,19,19a-dodecahydro-1H,5H-pyrrolo[2,1-c][1,4,7,12] benzoxatriazacyclopentadecine-11-carboxamide], for which, in the series “in vitro [1]” (both, CD-1, mouse, 10 µM), the Plasma Stability T½ [min] mouse is more than 240 min and the “Plasma Stability 240 min mouse [% remain.]” value turned out to be 100 % remain. Moreover, the half-life at 10 µM in series [2] (CD-1, mouse) was found to be 0.483 h. Further, in series [2] (both, CD-1, mouse, 10 µM), the “Metabolic Stability 60 min mouse [% remain.]” value was 15 % remain. The half-life at 10 µM in series [3] was found to be 0.4 h. The “Metabolic Stability 60 min hum [% remain.]” value in series [3] (both, 10 µM) turned out to be 1 % remain. Also, in “in vitro [4]” (10 µM), the Plasma Stability T½ [min] hum was more than 240 min and the “Plasma Stability 240 min hum [% remain.]” value is 100 % remain.
Consider `CN1CC(=O)N2C[C@@H](NC(=O)CCC(=O)O)C[C@H]2COc2ccc(F)cc2C(=O)N(C)[C@@H](C(=O)NCc2ccc3ccccc3c2)CCC1=O` [Ex. 95], for which, in the series “in vitro [1]” (mouse), the Plasma Stability T½ [min] mouse was more than 240 min and the “Plasma Stability 240 min mouse [% remain.]” value is given as 93 % remain. Further, in series [2] (mouse), the Metabolic Stability T½ [min] mouse is more than 60 min and the “Metabolic Stability 60 min mouse [% remain.]” value is given as 94 % remain. Also, in series [3], the Metabolic Stability T½ [min] hum was more than 60 min and the “Metabolic Stability 60 min hum [% remain.]” value was 76 % remain. Further, in the series “in vitro [4]”, the Plasma Stability T½ [min] hum is more than 240 min and the “Plasma Stability 240 min hum [% remain.]” value is given as 100 % remain.
On to `CN1CC(=O)N2C[C@@H](NC(=O)CN3CCCC3)C[C@H]2COc2ccc(F)cc2C(=O)N(C)[C@@H](C(=O)N2CCCC2)CCC1=O` [Ex. 98, N-[(2S,11R,19aS)-15-fluoro-7,12-dimethyl-5,8,13-trioxo-11-(1-pyrrolidinylcarbonyl)-2,3,6,7,8,9, 10,11,12,13,19,19a-dodecahydro-1H,5H-pyrrolo[2,1-c][1,4,7,12]benzoxatriazacyclopentadecin-2-yl]-2-(1-pyrrolidinyl)acetamide], for which, in the series “in vitro [1]” (both, CD-1, mouse, 10 µM), the Plasma Stability T½ [min] mouse is more than 240 min and the “Plasma Stability 240 min mouse [% remain.]” value was determined as 78 % remain. In series [2] (both, CD-1, mouse, 10 µM), the Metabolic Stability T½ [min] mouse was more than 60 min and the “Metabolic Stability 60 min mouse [% remain.]” value amounted to 100 % remain. Besides, in series [3] (both, 10 µM), the Metabolic Stability T½ [min] hum is more than 60 min and the “Metabolic Stability 60 min hum [% remain.]” value stood at 97 % remain. For the same compound, in “in vitro [4]” (10 µM), the Plasma Stability T½ [min] hum is more than 240 min and the “Plasma Stability 240 min hum [% remain.]” value is reported as 100 % remain.
With `CCCCCCCCCC(=O)N[C@H]1C[C@H]2COc3ccc(F)cc3C(=O)N(C)[C@@H](C(=O)NCc3ccc4ccccc4c3)CCC(=O)N(C)CC(=O)N2C1` [Ex. 102, (2S,11R,19aS)-2-(decanoylamino)-15-fluoro-7,12-dimethyl-N-(2-naphthylmethyl)-5,8,13-trioxo-2,3,6,7,8,9,10,11,12,13,19,19a-dodecahydro-1H,5H-pyrrolo[2,1-c][1,4,7,12] benzoxatriazacyclopentadecine-11-carboxamide], in “in vitro [1]” (both, CD-1, mouse, 10 µM), the Plasma Stability T½ [min] mouse was more than 240 min and the “Plasma Stability 240 min mouse [% remain.]” value worked out at 75 % remain. In series [2] (CD-1, mouse), this compound gave a half-life at 10 µM of 0.7 h. Moreover, the “Metabolic Stability 60 min mouse [% remain.]” value in series [2] (both, CD-1, mouse, 10 µM) is on record as 39 % remain. Moreover, the half-life at 10 µM in series [3] was determined as 0.383 h. Further, the “Metabolic Stability 60 min hum [% remain.]” value in series [3] (both, 10 µM) stood at 4 % remain. In addition, in “in vitro [4]” (10 µM), the Plasma Stability T½ [min] hum is more than 240 min and the “Plasma Stability 240 min hum [% remain.]” value is 65 % remain.
Compound `CCCCC(=O)N[C@H]1C[C@H]2COc3cccc(c3)C(=O)N(C)CC[C@H](N)C(=O)N2C1` [Ex. 167, N-[(4S,6S,10S)-10-amino-13-methyl-9,14-dioxo-2-oxa-8,13-diazatricyclo[13.3.1.0^4,8]nonadeca-1(19),15,17-trien-6-yl] pentanamide] returned a half-life at 10 µM in the series “in vitro [1]” (both sexes, CD-1, mouse) of 0.583 h. In addition, the “Plasma Stability 240 min mouse [% remain.]” value in “in vitro [1]” (both, CD-1, mouse, 10 µM) stood at 17 % remain. In series [2] (both, CD-1, mouse, 10 µM), the Metabolic Stability T½ [min] mouse is more than 60 min and the “Metabolic Stability 60 min mouse [% remain.]” value came out at 65 % remain. Besides, in series [3] (both, 10 µM), the Metabolic Stability T½ [min] hum is more than 60 min and the “Metabolic Stability 60 min hum [% remain.]” value is on record as 58 % remain.
On to `CN1CC(=O)N2C[C@H](NC(=O)Cc3ccc4ccccc4c3)C[C@H]2COc2ccc(cc2)C(=O)N(C)[C@H](C(=O)N2CCCC2)CCC1=O` [Ex. 264, N-[(4S,6R,15S)-11,16-dimethyl-9,12,17-trioxo-15-(1-pyrrolidinylcarbonyl)-2-oxa-8,11,16-triazatricyclo[16.2.2.0^4,8]docosa-1(20),18,21-trien-6-yl]-2-(2-naphthyl)acetamide], for which, in the series “in vitro [1]” (both, CD-1, mouse, 10 µM), the Plasma Stability T½ [min] mouse is more than 240 min and the “Plasma Stability 240 min mouse [% remain.]” value is listed as 88 % remain. Also, in series [2] (CD-1, mouse), the half-life at 10 µM worked out at 0.7 h. For the same compound, the “Metabolic Stability 60 min mouse [% remain.]” value in series [2] (both, CD-1, mouse, 10 µM) worked out at 32 % remain. In “in vitro [4]” (10 µM), the Plasma Stability T½ [min] hum was more than 240 min and the “Plasma Stability 240 min hum [% remain.]” value came to 94 % remain.

As a reminder, the half-life is the time needed for the level to fall by half in the phase considered. Read a low half-life as rapid decline.
